Laboratory results as given in patent US8895585B2, “Nicotinamide derivative or salt thereof” (FUJIFILM Corporation, priority 2010, dated 2014).
Read-outs that look alike come from different tables or passages of the source.

Target: T1, glutathione S-transferase (GST)-fused full-length human Syk protein (Homo sapiens, UniProt P43405)
T1 construct: (GST)-fused full-length human Syk protein; GST (glutathione S-transferase); purchased Carna Biosciences
Test: Syk enzyme assay
Format: biochemical
How it was run: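 GST-tagged full-length human Syk (baculovirus) preincubated with compound 15 min at room temperature (pH 7.0, 10 mM MgCl2), then reacted 40 min with 0.4 μM biotinylated peptide substrate and 27 μM ATP (final). Phosphorylation read by HTRF (615/665 nm) after EDTA stop; IC50 reported.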

[1] = Syk enzyme assay, Test Example 1, read-out: IC50 of Syk-inhibitory activity
[2] = read-out: Syk-inhibitory activity (IC50)

| SMILES | IC50 [1] [nM] | IC50 [2] [nM] |
| --- | --- | --- |
| NC(=O)c1cc(F)c(N[C@H](Cc2cnc[nH]2)C(N)=O)nc1Nc1ccc2ncccc2c1 [Example 012-035, (R)-6-((1-amino-3-(1H-imidazol-5-yl)-1-oxopropan-2-yl)amino)-5-fluoro-2-((quinolin-6-yl)amino)nicotinamide] | 100 to 1000 |  |
| CC(C)(C)[C@@H](Nc1nc(Nc2ccc3ncccc3c2)c(C(N)=O)cc1F)C(N)=O [Example 012-037] | 50 to 100 |  |
| CCC[C@@H](Nc1nc(Nc2ccc3ncccc3c2)c(C(N)=O)cc1F)C(N)=O [Example 012-038] | 10 to 50 |  |
| NC(=O)c1cc(F)c(NCC(N)Cc2ccccc2)nc1Nc1ccc2ncccc2c1 (centres unmarked) [Example 014-003] | 50 to 100 |  |
| CCC(N)CNc1nc(Nc2ccc3ncccc3c2)c(C(N)=O)cc1F (centres unmarked) [Example 014-004] | 10 to 50 |  |
| CC(C)(N)CNc1nc(Nc2ccc3ncccc3c2)c(C(N)=O)cc1F [Example 014-011, 6-((2-amino-2-methylpropyl)amino)-5-fluoro-2-((quinolin-6-yl)amino)nicotinamide] | 10 to 50 |  |
| CC(C)(CN)Nc1nc(Nc2ccc3ncccc3c2)c(C(N)=O)cc1F [Example 014-012, 6-((1-amino-2-methylpropan-2-yl)amino)-5-fluoro-2-((quinolin-6-yl)amino)nicotinamide] | 50 to 100 |  |
| CC(C)(C)[C@H](N)CNc1nc(Nc2ccc3ncccc3c2)c(C(N)=O)cc1F [Example 014-015, (S)-6-((2-amino-3,3-dimethylbutyl)amino)-5-fluoro-2-((quinolin-6-yl)amino)nicotinamide] | 50 to 100 |  |
| NC(=O)c1cc(F)c(NC[C@@H](N)c2cccnc2)nc1Nc1ccc2ncccc2c1 [Example 014-018, (S)-6-((2-amino-2-(pyridin-3-yl)ethyl)amino)-5-fluoro-2-((quinolin-6-yl)amino)nicotinamide] | 10 to 50 |  |
| NC(=O)c1cc(F)c(NCC2CCCCN2)nc1Nc1ccc2ncccc2c1 (centres unmarked) [Example 014-021] | 100 to 1000 |  |
| CCNc1nc(Nc2cc(OC)cc(OC)c2)c(C(N)=O)cc1F [Example 15, 2-(3,5-dimethoxyphenylamino)-6-(ethylamino)-5-fluoronicotinamide] |  | ≤ 1000 |
| CCNc1nc(Nc2cc(OC)cc(OC)c2)c(C(N)=O)cc1F [Example 016-001] | 100 to 1000 |  |
| COc1cc(Nc2nc(NCC(N)=O)c(F)cc2C(N)=O)cc(OC)c1 [Example 016-005] | 100 to 1000 |  |
| COc1cc(Nc2nc(NCC3CC3)c(F)cc2C(N)=O)cc(OC)c1 [Example 16-8, 6-((cyclopropylmethyl)amino)-2-((3,5-dimethoxyphenyl)amino)-5-fluoronicotinamide] |  | ≤ 1000 |
| COc1cc(Nc2nc(NCC3CC3)c(F)cc2C(N)=O)cc(OC)c1 [Example 016-008] | 100 to 1000 |  |
| COc1cc(Nc2nc(NC(C(N)=O)c3ccccc3)c(F)cc2C(N)=O)cc(OC)c1 (centres unmarked) [Example 16-9, 6-((2-amino-2-oxo-1-phenylethyl)amino)-2-((3,5-dimethoxyphenyl)amino)-5-fluoronicotinamide] |  | ≤ 1000 |
| COc1cc(Nc2nc(NC(C(N)=O)c3ccccc3)c(F)cc2C(N)=O)cc(OC)c1 (centres unmarked) [Example 016-009] | 10 to 50 |  |

| SMILES | IC50 [1] [nM] | IC50 [2] [nM] |
| --- | --- | --- |
| COc1cc(Nc2nc(NCCc3cnc[nH]3)c(F)cc2C(N)=O)cc(OC)c1 [Example 016-011] | 100 to 1000 |  |
| C#CCNc1nc(Nc2cc(OC)cc(OC)c2)c(C(N)=O)cc1F [Example 016-012] | 100 to 1000 |  |
| COc1cc(Nc2nc(NCc3ccccc3N)c(F)cc2C(N)=O)cc(OC)c1 [Example 016-014] | 100 to 1000 |  |
| COc1cc(Nc2nc(NCc3ccc(N)cc3)c(F)cc2C(N)=O)cc(OC)c1 [Example 016-015] | 100 to 1000 |  |
| COc1cc(Nc2nc(NCc3cc4ccccc4[nH]3)c(F)cc2C(N)=O)cc(OC)c1 [Example 016-016] | 100 to 1000 |  |
| COc1cc(Nc2nc(N[C@@H](C(N)=O)c3ccccc3)c(F)cc2C(N)=O)cc(OC)c1 [Example 16-17, 6-(((1R)-2-amino-2-oxo-1-phenylethyl)amino)-2-((3,5-dimethoxyphenyl)amino)-5-fluoronicotinamide] |  | ≤ 1000 |
| COc1cc(Nc2nc(N[C@@H](C(N)=O)c3ccccc3)c(F)cc2C(N)=O)cc(OC)c1 [Example 016-017] | 10 to 50 |  |
| COc1cc(Nc2nc(N[C@H](C(N)=O)c3ccccc3)c(F)cc2C(N)=O)cc(OC)c1 [Example 16-18, 6-(((1S)-2-amino-2-oxo-1-phenylethyl)amino)-2-((3,5-dimethoxyphenyl)amino)-5-fluoronicotinamide] |  | ≤ 1000 |
| COc1cc(Nc2nc(N[C@H](C(N)=O)c3ccccc3)c(F)cc2C(N)=O)cc(OC)c1 [Example 016-018] | 100 to 1000 |  |
| COc1cc(Nc2nc(Nc3ccncc3)c(F)cc2C(N)=O)cc(OC)c1 [Example 016-020] | 100 to 1000 |  |
| COc1cc(Nc2nc(N3CCNC(=O)C3)c(F)cc2C(N)=O)cc(OC)c1 [Example 016-024] | 100 to 1000 |  |
| COc1cc(Nc2nc(N3CC[C@@H](N)C3)c(F)cc2C(N)=O)cc(OC)c1 [Example 17, 6-((3R)-3-aminopyrrolidin-1-yl)-2-(3,5-dimethoxyphenylamino)-5-fluoronicotinamide] |  | ≤ 1000 |
| COc1cc(Nc2nc(N3CCC(N)C3)c(F)cc2C(N)=O)cc(OC)c1 (centres unmarked) [Example 018-001] | 100 to 1000 |  |
| COc1cc(Nc2nc(NCCc3c[nH]c4ccccc34)c(F)cc2C(N)=O)cc(OC)c1 [Example 19, 2-(3,5-dimethoxyphenylamino)-5-fluoro-6-(2-(1H-indole-3-yl)ethylamino)nicotinamide] |  | ≤ 1000 |
| CNc1nc(Nc2cc(OC)cc(OC)c2)c(C(N)=O)cc1F [Example 23, 2-(3,5-dimethoxyphenylamino)-5-fluoro-6-(methylamino)nicotinamide] |  | ≤ 1000 |
| NC(=O)c1cc(F)c(Nc2cccnc2)nc1Nc1cnc2ccccc2c1 [Example 24, 5-fluoro-6-(pyridin-3-ylamino)-2-(quinolin-3-ylamino)nicotinamide] |  | ≤ 1000 |

Second part, the molecule after the results:

| IC50 [1] [nM] | IC50 [2] [nM] | SMILES |
| --- | --- | --- |
| 100 to 1000 |  | COc1cc(Nc2nc(NCCc3c[nH]c4ccccc34)c(F)cc2C(N)=O)cc(OC)c1 [Example 020-002] |
| 100 to 1000 |  | CNc1nc(Nc2cc(OC)cc(OC)c2)c(C(N)=O)cc1F [Example 022-008] |
| 100 to 1000 |  | CS(=O)(=O)Nc1cncc(Nc2nc(NC3CCCCC3N)c(F)cc2C(N)=O)c1 (centres unmarked) [Example 027-006] |
| 10 to 50 |  | NC(=O)c1cc(F)c(NC2CCCCC2N)nc1Nc1cncc(NC(=O)c2ccccc2Cl)c1 (centres unmarked) [Example 027-007] |
| 10 to 50 |  | NC(=O)c1cc(F)c(NC2CCCCC2N)nc1Nc1cncc(NC(=O)c2cccc(Cl)c2)c1 (centres unmarked) [Example 027-008] |
| 10 to 50 |  | NC(=O)c1cc(F)c(NC2CCCCC2N)nc1Nc1cncc(NC(=O)c2ccc(Cl)cc2)c1 (centres unmarked) [Example 027-009] |
| 100 to 1000 |  | NC(=O)c1cc(F)c(NC2CCCCC2N)nc1Nc1cncc(NC(=O)c2ccc(OC(F)(F)F)cc2)c1 (centres unmarked) [Example 027-016] |
| 50 to 100 |  | NC(=O)c1cc(F)c(NC2CCCCC2N)nc1Nc1cncc(NC(=O)c2ccc(Cl)cc2Cl)c1 (centres unmarked) [Example 027-018] |
| 10 to 50 |  | COc1ccc(C(=O)Nc2cncc(Nc3nc(NC4CCCCC4N)c(F)cc3C(N)=O)c2)c(OC)c1 (centres unmarked) [Example 027-019] |
| 10 to 50 |  | NC(=O)c1cc(F)c(NC2CCCCC2N)nc1Nc1cncc(NC(=O)c2cccnc2)c1 (centres unmarked) [Example 027-021] |
| 10 to 50 |  | NC(=O)c1cc(F)c(NC2CCCCC2N)nc1Nc1cncc(NC(=O)c2ccncc2)c1 (centres unmarked) [Example 027-022] |
| 50 to 100 |  | Cc1ccccc1C(=O)Nc1cncc(Nc2nc(NC3CCCCC3N)c(F)cc2C(N)=O)c1 (centres unmarked) [Example 027-023] |
| 10 to 50 |  | COc1ccccc1C(=O)Nc1cncc(Nc2nc(NC3CCCCC3N)c(F)cc2C(N)=O)c1 (centres unmarked) [Example 027-024] |
| 10 to 50 |  | CCOc1ccccc1C(=O)Nc1cncc(Nc2nc(NC3CCCCC3N)c(F)cc2C(N)=O)c1 (centres unmarked) [Example 027-025] |
| 50 to 100 |  | NC(=O)c1cc(F)c(NC2CCCCC2N)nc1Nc1cncc(NC(=O)c2ccccc2OC(F)(F)F)c1 (centres unmarked) [Example 027-026] |
| 10 to 50 |  | NC(=O)c1cc(F)c(NC2CCCCC2N)nc1Nc1cncc(NC(=O)c2cccc(F)c2)c1 (centres unmarked) [Example 027-027] |
| 10 to 50 |  | COc1cccc(C(=O)Nc2cncc(Nc3nc(NC4CCCCC4N)c(F)cc3C(N)=O)c2)c1 (centres unmarked) [Example 027-028] |
| 10 to 50 |  | NC(=O)c1cc(F)c(NC2CCCCC2N)nc1Nc1cncc(NC(=O)c2ccc(F)cc2F)c1 (centres unmarked) [Example 027-029] |
| < 10 |  | NC(=O)c1cc(F)c(NC2CCCCC2N)nc1Nc1cncc(NC(=O)c2cccs2)c1 (centres unmarked) [Example 027-031] |
| < 10 |  | NC(=O)c1cc(F)c(NC2CCCCC2N)nc1Nc1cncc(NC(=O)c2ccsc2)c1 (centres unmarked) [Example 027-032] |
| 10 to 50 |  | NC(=O)c1cc(F)c(NC2CCCCC2N)nc1Nc1cncc(NC(=O)c2ccc3c(c2)OCO3)c1 (centres unmarked) [Example 027-034] |
| 10 to 50 |  | NC(=O)c1cc(F)c(NC2CCCCC2N)nc1Nc1cncc(NC(=O)c2ccc3c(c2)OCCO3)c1 (centres unmarked) [Example 027-035] |
| 10 to 50 |  | NC(=O)c1cc(F)c(NC2CCCCC2N)nc1Nc1cncc(NC(=O)c2ccc3occc3c2)c1 (centres unmarked) [Example 027-037] |
| 10 to 50 |  | NC(=O)c1cc(F)c(NC2CCCCC2N)nc1Nc1cncc(NC(=O)c2ccc3sccc3c2)c1 (centres unmarked) [Example 027-038] |
| 10 to 50 |  | NC(=O)c1cc(F)c(NC2CCCCC2N)nc1Nc1cncc(NC(=O)c2csc3ccccc23)c1 (centres unmarked) [Example 027-039] |
| 10 to 50 |  | NC(=O)c1cc(F)c(NC2CCCCC2N)nc1Nc1cncc(NC(=O)c2cc3ccccc3s2)c1 (centres unmarked) [Example 027-040] |
| < 10 |  | NC(=O)c1cc(F)c(NC2CCCCC2N)nc1Nc1cncc(NC(=O)c2cc3ccccc3o2)c1 (centres unmarked) [Example 027-041] |
| < 10 |  | CN(C)C(=O)Cn1ccc2c(Nc3nc(N[C@@H]4CCCC[C@@H]4N)c(F)cc3C(N)=O)ccnc21 [Example 029-004] |
| < 10 |  | NC(=O)c1cc(F)c(NC2CCCC[C@@H]2N)nc1Nc1ccnc2c1ccn2CC(=O)N1CCCCC1 (some centres unmarked) [Example 029-005] |
